{
  "source": "patent US9227977B2",
  "about": "“Phosphoinositide 3-kinase inhibitors” (RESPIVERT LTD., priority 2013, dated 2016)",
  "key": {"PI3K α": {"target": "PI3K α (Homo sapiens (Human), UniProt P42336)", "sequence (P42336 whole entry, species assumed)": "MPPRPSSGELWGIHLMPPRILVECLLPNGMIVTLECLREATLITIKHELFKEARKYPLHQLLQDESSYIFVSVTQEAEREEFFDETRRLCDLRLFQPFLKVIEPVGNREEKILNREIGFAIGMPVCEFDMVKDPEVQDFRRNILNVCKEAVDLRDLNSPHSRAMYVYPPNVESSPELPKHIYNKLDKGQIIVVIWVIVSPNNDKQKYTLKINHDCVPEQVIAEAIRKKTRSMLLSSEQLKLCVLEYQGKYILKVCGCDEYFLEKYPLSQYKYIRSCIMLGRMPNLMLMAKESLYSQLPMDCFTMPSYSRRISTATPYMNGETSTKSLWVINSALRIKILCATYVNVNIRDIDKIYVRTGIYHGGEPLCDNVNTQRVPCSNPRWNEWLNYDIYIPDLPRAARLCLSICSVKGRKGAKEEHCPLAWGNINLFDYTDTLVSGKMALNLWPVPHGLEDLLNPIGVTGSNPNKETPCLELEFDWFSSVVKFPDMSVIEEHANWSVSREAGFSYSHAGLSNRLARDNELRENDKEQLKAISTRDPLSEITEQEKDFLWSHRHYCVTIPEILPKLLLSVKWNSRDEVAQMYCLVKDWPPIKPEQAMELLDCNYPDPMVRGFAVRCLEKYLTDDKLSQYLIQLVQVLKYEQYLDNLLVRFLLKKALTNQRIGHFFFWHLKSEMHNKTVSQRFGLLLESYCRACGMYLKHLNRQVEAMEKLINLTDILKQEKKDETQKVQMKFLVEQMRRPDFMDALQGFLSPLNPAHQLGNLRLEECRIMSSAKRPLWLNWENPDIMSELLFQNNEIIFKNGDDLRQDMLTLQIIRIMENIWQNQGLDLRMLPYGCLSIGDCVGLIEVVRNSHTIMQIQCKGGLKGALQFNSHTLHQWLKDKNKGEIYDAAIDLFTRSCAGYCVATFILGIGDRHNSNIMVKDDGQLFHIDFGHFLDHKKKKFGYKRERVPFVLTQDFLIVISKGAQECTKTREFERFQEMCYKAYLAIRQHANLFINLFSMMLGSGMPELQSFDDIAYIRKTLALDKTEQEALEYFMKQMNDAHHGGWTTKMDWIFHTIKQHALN", "sequence (P27986 whole entry partner, species assumed)": "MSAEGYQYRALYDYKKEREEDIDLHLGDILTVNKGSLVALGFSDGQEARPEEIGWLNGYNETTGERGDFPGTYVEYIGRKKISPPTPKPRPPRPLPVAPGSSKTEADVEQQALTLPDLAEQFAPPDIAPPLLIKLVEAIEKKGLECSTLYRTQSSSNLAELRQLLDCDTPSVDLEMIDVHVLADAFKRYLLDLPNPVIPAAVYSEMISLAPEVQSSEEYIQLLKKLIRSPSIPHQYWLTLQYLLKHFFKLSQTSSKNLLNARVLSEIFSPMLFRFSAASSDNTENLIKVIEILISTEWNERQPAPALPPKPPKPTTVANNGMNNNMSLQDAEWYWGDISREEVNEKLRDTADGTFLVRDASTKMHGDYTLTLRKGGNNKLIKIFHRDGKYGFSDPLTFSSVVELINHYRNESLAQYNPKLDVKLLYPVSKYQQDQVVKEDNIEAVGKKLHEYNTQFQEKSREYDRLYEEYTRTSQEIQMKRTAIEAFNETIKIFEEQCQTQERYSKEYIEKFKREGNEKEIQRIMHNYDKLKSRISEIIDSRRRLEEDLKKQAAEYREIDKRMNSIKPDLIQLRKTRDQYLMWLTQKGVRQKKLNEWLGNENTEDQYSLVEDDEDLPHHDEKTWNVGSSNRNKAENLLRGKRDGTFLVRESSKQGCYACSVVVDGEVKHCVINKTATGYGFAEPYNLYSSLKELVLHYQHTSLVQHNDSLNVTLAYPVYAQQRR", "test": "PI3K enzyme inhibition assay (HTRF TR-FRET)", "format": "biochemical", "source_text": "(§1) The PI3K enzymes catalyse the phosphorylation of phosphatidylinositol 4,5-biphosphate (PIP2) to phosphatidylinositol 3,4,5-triphosphate (PIP3) in the presence of ATP and Mg^2+ ions. The PIP3 product can be detected by displacement of biotin-PIP3 from energy transfer complexes consisting of europium labelled anti-GST monoclonal antibody, a GST-tagged Pleckstrin homology (PH) domain, biotinylated PIP3 and streptavidin-allophycocyanin (APC) by the time-resolved fluorescence resonance energy transfer (TR-FRET) (HTRF®PI3K enzyme assay, Millipore). Excitation, at 330 nm, of europium in the complex results in an energy transfer to the APC and a fluorescent emission at 665 nm although europium itself emits at its characteristic wavelength of 620 nm. The PIP3 product formed by PI3K activity displaces biotin-PIP3 from the complex and results in a loss of energy transfer (decreasing signal).\n(§2) The compound to be tested was added, at the desired final concentrations, to a mixture of PIP2 substrate and a recombinant PI3K enzyme (either α, β or δ isoforms, ex Millipore, or γ isoform [p110γ+p101 construct], ex United States Biological, Swampscott, Mass.) and the mixture incubated for 2 hr at RT. […] A stopping solution containing biotinylated PIP3 and the detection mix containing the GST tagged GRP1 pleckstrin homology (PH) domain and fluorophores were then added and the mixture was incubated at RT for 15-18 hr, prior to detection in a fluorescence microplate reader (Synergy 4, BioTek UK, Bedfordshire, UK).\n(§3) The results were calculated according to the formula: APC signal (emission at 665 nm)/europium signal (emission at 620 nm)×10^4."}, "PI3K δ": {"target": "PI3K δ (Homo sapiens (Human), UniProt O00329)", "sequence (O00329 whole entry, species assumed)": "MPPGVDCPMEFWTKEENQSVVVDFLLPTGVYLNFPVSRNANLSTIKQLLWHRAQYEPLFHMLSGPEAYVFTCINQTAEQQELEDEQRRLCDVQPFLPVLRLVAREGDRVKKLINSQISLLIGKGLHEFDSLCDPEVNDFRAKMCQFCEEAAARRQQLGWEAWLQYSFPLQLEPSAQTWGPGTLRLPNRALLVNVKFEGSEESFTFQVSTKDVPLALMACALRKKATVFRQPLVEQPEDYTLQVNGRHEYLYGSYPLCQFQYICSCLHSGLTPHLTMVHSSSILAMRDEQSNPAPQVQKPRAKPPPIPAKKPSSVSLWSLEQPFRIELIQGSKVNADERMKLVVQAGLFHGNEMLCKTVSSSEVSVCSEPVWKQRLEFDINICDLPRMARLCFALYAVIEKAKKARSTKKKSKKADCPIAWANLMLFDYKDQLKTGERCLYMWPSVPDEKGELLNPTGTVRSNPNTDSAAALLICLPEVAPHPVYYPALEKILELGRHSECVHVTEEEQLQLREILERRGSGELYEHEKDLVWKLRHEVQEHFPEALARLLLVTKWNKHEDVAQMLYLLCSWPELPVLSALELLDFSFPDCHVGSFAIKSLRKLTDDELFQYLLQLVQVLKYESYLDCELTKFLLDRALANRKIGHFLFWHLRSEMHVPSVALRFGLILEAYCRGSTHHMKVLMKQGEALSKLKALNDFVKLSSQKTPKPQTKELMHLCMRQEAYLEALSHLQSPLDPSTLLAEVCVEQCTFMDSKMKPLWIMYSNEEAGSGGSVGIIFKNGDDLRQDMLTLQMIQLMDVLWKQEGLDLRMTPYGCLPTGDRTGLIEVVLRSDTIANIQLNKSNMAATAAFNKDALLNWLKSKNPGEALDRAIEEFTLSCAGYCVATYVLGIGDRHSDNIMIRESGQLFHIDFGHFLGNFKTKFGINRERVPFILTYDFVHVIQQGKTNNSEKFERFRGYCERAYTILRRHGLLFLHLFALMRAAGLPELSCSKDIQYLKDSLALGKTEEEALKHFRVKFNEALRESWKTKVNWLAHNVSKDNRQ", "sequence (P27986 whole entry partner, species assumed)": "as the sequence (P27986 whole entry partner, species assumed) above", "test": "PI3K enzyme inhibition assay (HTRF TR-FRET)", "format": "biochemical", "source_text": "as §1, §2, §3"}, "PI3K γ": {"target": "PI3K γ (Homo sapiens (Human), UniProt P48736)", "sequence (P48736 whole entry, species assumed)": "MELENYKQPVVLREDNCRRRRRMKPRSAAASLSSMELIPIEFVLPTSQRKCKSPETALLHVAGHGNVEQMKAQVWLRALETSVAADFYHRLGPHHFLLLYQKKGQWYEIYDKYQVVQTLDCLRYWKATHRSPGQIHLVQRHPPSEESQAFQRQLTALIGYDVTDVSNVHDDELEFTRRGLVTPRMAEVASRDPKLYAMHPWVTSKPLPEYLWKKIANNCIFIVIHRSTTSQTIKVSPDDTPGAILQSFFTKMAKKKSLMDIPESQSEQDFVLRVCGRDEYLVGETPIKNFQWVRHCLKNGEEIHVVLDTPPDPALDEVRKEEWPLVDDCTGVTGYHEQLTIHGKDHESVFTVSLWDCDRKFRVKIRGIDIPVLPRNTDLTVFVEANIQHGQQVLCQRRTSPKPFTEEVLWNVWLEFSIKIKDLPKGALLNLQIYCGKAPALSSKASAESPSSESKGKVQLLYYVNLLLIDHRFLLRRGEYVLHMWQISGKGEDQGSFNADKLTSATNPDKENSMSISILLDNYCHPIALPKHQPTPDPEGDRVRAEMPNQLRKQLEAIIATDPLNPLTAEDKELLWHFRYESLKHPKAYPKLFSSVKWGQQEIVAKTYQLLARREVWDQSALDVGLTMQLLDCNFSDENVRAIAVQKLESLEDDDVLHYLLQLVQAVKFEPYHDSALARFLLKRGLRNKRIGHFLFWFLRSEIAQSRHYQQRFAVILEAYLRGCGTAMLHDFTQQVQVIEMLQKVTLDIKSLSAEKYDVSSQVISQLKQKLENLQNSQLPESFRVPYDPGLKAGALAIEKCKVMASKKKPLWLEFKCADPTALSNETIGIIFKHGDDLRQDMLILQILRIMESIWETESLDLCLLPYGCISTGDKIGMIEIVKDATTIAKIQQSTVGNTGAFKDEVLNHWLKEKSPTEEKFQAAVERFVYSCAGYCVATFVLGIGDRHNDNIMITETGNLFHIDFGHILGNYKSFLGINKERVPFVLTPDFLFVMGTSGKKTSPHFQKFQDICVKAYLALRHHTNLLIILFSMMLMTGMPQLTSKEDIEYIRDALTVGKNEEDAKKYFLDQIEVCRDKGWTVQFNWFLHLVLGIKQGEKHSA", "sequence (Q8WYR1 whole entry partner, species assumed)": "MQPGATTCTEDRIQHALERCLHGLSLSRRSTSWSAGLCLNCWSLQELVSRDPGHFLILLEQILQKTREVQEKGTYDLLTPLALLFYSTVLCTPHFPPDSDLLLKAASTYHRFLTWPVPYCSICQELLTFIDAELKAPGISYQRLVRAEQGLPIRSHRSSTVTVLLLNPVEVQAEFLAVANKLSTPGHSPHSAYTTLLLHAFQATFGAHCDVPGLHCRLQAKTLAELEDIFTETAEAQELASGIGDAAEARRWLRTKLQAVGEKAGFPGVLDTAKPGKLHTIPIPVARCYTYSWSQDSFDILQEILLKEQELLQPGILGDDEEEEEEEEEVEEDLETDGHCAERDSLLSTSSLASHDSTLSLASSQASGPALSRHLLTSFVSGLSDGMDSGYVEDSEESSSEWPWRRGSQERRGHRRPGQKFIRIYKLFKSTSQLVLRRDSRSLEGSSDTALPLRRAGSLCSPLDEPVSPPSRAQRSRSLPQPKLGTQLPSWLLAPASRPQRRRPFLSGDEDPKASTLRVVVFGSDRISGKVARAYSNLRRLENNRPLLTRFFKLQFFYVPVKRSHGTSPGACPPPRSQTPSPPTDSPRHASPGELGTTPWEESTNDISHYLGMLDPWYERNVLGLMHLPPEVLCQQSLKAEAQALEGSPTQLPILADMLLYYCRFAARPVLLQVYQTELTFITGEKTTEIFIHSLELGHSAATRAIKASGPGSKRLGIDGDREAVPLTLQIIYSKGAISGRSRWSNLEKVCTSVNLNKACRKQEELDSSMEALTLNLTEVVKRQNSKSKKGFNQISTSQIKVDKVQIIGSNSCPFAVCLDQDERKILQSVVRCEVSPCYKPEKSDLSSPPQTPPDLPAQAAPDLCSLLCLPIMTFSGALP", "test": "PI3K enzyme inhibition assay (HTRF TR-FRET)", "format": "biochemical", "source_text": "as §1, §2, §3"}, "d-U937 cells": {"system": "d-U937 cells", "test": "MTT assay, cell viability", "format": "cell-based, human", "details": "10 μg/mL", "description": "PMA-differentiated U937 cells were pre-incubated with test compound (10 μg/mL) or vehicle for 4 hr in 5% FCS or 10% FCS for 24 hr. The supernatant was replaced with new media (200 μL) and MTT stock solution (10 μL, 5 mg/mL) was added to each well. After 1 hr incubation, the media were removed, 200 μL of DMSO was added to each well and the plates were shaken lightly for 1 hr prior to reading the absorbance at 550 nm. The percentage loss of cell viability was calculated for each well relative to vehicle (0.5% DMSO)-treatment."}, "PI3K β": {"target": "PI3K β (Homo sapiens (Human), UniProt P42338)", "test": "PI3K enzyme inhibition assay (HTRF TR-FRET)", "format": "biochemical", "details": "read-out: PI3 Kinase Inhibition IC50 value at state isozyme, β", "source_text": "as §1\nThe compound to be tested was added, at the desired final concentrations, to a mixture of PIP2 substrate and a recombinant PI3K enzyme (either α, β or δ isoforms, ex Millipore, or γ isoform [p110γ+p101 construct], ex United States Biological, Swampscott, Mass.) and the mixture incubated for 2 hr at RT. Following this incubation period, ATP (10 μM) was added to the enzyme/compound/PIP2 substrate mixture and the resulting mixture was incubated for a further 30 min at RT. A stopping solution containing biotinylated PIP3 and the detection mix containing the GST tagged GRP1 pleckstrin homology (PH) domain and fluorophores were then added and the mixture was incubated at RT for 15-18 hr, prior to detection in a fluorescence microplate reader (Synergy 4, BioTek UK, Bedfordshire, UK).\nThe results were calculated according to the formula: APC signal (emission at 665 nm)/europium signal (emission at 620 nm)×10^4. The percentage inhibition of each reaction was calculated relative to DMSO treated control, and the 50% inhibitory concentration (IC50 value) then calculated from the concentration-response curve."}, "[1]": {"system": "cigarette smoke-induced cell accumulation and biomarkers in murine BALF", "test": "Cigarette smoke model", "format": "in vivo, mouse", "details": "0.3-10 mg/kg, p.o."}, "[2]": {"system": "cigarette smoke-induced cell accumulation and biomarkers in murine BALF", "test": "Cigarette smoke model", "format": "in vivo, mouse", "details": "dose used for co-administration", "description": "A/J mice (males, 5 weeks old) were exposed to cigarette smoke (4% cigarette smoke, diluted with compressed air) for 30 min/day for 11 days using a Tobacco Smoke Inhalation Experiment System for small animals (Model SIS-CS; Sibata Scientific Technology, Tokyo, Japan). Test substances were administered once daily for 3 days after the final cigarette smoke exposure (intra-nasal dose comprising 35 μL of solution in 50% DMSO/isotonic saline).\nAt 12 hr after administration of the last dose, animals were anesthetized, the trachea was cannulated and bronchial alveolar lavage (BAL) was carried out by the instillation into and then withdawal from the lungs, of PBS (100 mL/kg). Total cell numbers in the BALF samples were measured using a haemocytometer under a phase-contrast microscope. The proportions of alveolar macrophages and neutrophils were determined by FACS analysis using anti-mouse MOMA2-FITC (macrophage) or anti-mouse 7/4 (neutrophil).\nCells were suspended in PBS and were incubated with anti-MOMA2-FITC (2 μg/mL, Catalogue no SM065F, Acris Antibodies GmbH, Herford, Germany) or anti-7/4-FITC (2 μg/mL, Catalogue no CL050F, Acris Antibodies GmbH, Herford, Germany) for 30 min at 30° C., and also counterstained with propidium iodide (2 μg/mL) to allow exclusion of necrotic cells. The cells were washed with PBS, and transferred to FACS tubes. Samples was set in a flow cytometer (ALTRA II; Beckman Coulter Japan, Tokyo, Japan), and a single-parameter FL2 [PMT2] (FITC) histogram with log x-axis was plotted to illustrate relative intensity of FITC.\nData files are stored for subsequent analysis using Kaluza analysis software (ver. 1.2) to calculate the proportion of each cell type. The levels of CXCL1(KC), MCP1, TNFα, IL-17 or osteopontin in BALF were determined using Quentikine® mouse KC, MCP1, TNFα, IL-17 or osteopontin ELISA kit (R&D systems, Inc., Minneapolis, Minn., USA). The presence of malondialdehyde was measured using OxiSelect® TBARS Assay Kit (MDA Quantitation; Cell Biolabs Inc, San Diego, Calif., USA)."}},
  "note": "Read-outs that look alike come from different tables or passages of the source.",
  "data": [
    {"smiles": "Nc1ncnc2c1c(-c1cc(O)cc(F)c1)nn2Cc1nc2cccc(C#CCOCCOCCO)c2c(=O)n1Cc1ccccc1C(F)(F)F", "note": "[Compound (Ia), 2-((4-Amino-3-(3-fluoro-5-hydroxyphenyl)-1H-pyrazolo[3,4-d]pyrimidin-1-yl)methyl)-5-(3-(2-(2-hydroxyethoxy)ethoxy)prop-1-yn-1-yl)-3-(2-(trifluoromethyl)benzyl)quinazolin-4(3H)-one]", "values": [
      {"measurement": "IC50", "setting": "PI3K α; read-out: PI3 Kinase Inhibition IC50 value at state isozyme, α", "value": "> 14.2", "unit": "µM"},
      {"measurement": "inhibition of PI3K δ compared with compound of formula (I) (in words)", "setting": "PI3K δ", "value": "significantly less active"},
      {"measurement": "IC50", "setting": "PI3K δ; read-out: PI3 Kinase Inhibition IC50 value at state isozyme, δ", "value": 0.017, "unit": "µM"},
      {"measurement": "inhibition of PI3K γ compared with compound of formula (I) (in words)", "setting": "PI3K γ", "value": "significantly less active"},
      {"measurement": "IC50", "setting": "PI3K γ; read-out: PI3 Kinase Inhibition IC50 value at state isozyme, γ", "value": 0.577, "unit": "µM"},
      {"measurement": "Cell Viability MTT Assay in d-U937 cells at 4 hr", "setting": "d-U937 cells; 4 hr", "value": "−ve (−ve indicates a value of <30% inhibition at 10 μg/mL)"},
      {"measurement": "Cell Viability MTT Assay in d-U937 cells at 24 hr", "setting": "d-U937 cells; 24 hr", "value": "−ve (−ve indicates a value of <30% inhibition at 10 μg/mL)"},
      {"measurement": "IC50", "setting": "PI3K β", "value": "> 14.2", "unit": "µM"}
    ]},
    {"smiles": "COCCOCCOCC#Cc1cccc2nc(Cn3nc(-c4cccc(O)c4)c4c(N)ncnc43)n(Cc3ccccc3F)c(=O)c12", "note": "[Example 50, 2-((4-amino-3-(3-hydroxyphenyl)-1H-pyrazolo[3,4-d]pyrimidin-1-yl)methyl)-3-(2-fluorobenzyl)-5-(3-(2-(2-methoxyethoxy)ethoxy)prop-1-ynyl) quinazolin-4(3H)-one, reference compound]", "values": [
      {"measurement": "IC50", "setting": "PI3K α; read-out: IC50 Values for PI3K inhibition at isozyme indicated, PI3K α", "value": 0.653, "unit": "µM"},
      {"measurement": "IC50", "setting": "PI3K δ; read-out: IC50 Values for PI3K inhibition at isozyme indicated, PI3K δ", "value": 0.0057, "unit": "µM"},
      {"measurement": "IC50", "setting": "PI3K γ; read-out: IC50 Values for PI3K inhibition at isozyme indicated, PI3K γ", "value": 0.12, "unit": "µM"}
    ]},
    {"smiles": "C[C@@H]1C[C@H]2[C@@H]3CCC4=CC(=O)C=C[C@]4(C)[C@@]3(F)[C@@H](O)C[C@]2(C)[C@@]1(O)C(=O)CO", "note": "[dexamethasone]", "values": [
      {"measurement": "activity in cigarette smoke model (in words)", "setting": "[1]", "value": "inactive"}
    ]},
    {"smiles": "CCC(=O)O[C@]1(C(=O)SCF)[C@H](C)C[C@H]2[C@@H]3C[C@H](F)C4=CC(=O)C=C[C@]4(C)[C@@]3(F)[C@@H](O)C[C@@]21C", "note": "[fluticasone propionate, reference compound]", "values": [
      {"measurement": "effect as monotherapy in cigarette smoke model (in words)", "setting": "[2]", "value": "lacks any significant effect"}
    ]}
  ]
}
